{"source": "ChEMBL document CHEMBL5113559", "about": "“From Oxetane to Thietane: Extending the Antiviral Spectrum of 2'-Spirocyclic Uridines by Substituting Oxygen with Sulfur” (ACS Med Chem Lett, 2022)", "key": {"Hepatitis C virus": {"system": "Hepatitis C virus", "assay": "Antiviral activity against HCV genotype 1b infected in human Huh7 cells incubated for 3 days and measured by luciferase reporter gene assay", "assay_type": "functional, organism-based, Hepacivirus hominis", "conditions": "subtype 1b, Huh-7, 72 h"}, "Chikungunya virus": {"system": "Chikungunya virus", "assay": "Antiviral activity against CHIKV S27 infected in human Huh-7 cells at MOI of 0.25 incubated for 2 days and measured by ATPLite assay", "assay_type": "functional, organism-based", "conditions": "S27, Huh-7, 48 h"}, "dengue virus type 2": {"system": "dengue virus type 2", "assay": "Antiviral activity against DENV2 16681 infected in human Huh-7 cells assessed as reduction in viral replication at MOI of 1 to 5 incubated for 3 days", "assay_type": "functional, organism-based", "conditions": "Dengue virus, 16681, Huh-7, 72 h"}, "[1]": {"assay": "Cytotoxicity against human Huh-7 cells measured after 2 days by ATPLite-based viability assay", "assay_type": "toxicity, cell-based", "conditions": "time 2 day"}, "Sindbis virus": {"system": "Sindbis virus", "assay": "Antiviral activity against SINV AR339 infected in human Huh-7 cells measured by cytopathic effect inhibition assay", "assay_type": "functional, organism-based", "conditions": "AR339, Huh-7"}, "[2]": {"assay": "Stability of compound in human plasma assessed as half-life incubated for 24 hrs and assessed as half-life at 1 uM by LC-MS/MS analysis", "assay_type": "ADME, cell-free"}, "[3]": {"assay": "AUClast in male C57BL/6 mouse at 50 mg/kg, po measured by LC-MS/MS analysis", "assay_type": "ADME, organism-based", "conditions": "in vivo"}, "[4]": {"assay": "AUClast in male C57BL/6 mouse at 50 mg/kg, sc measured by LC-MS/MS analysis", "assay_type": "ADME, organism-based", "conditions": "in vivo"}, "[5]": {"assay": "Tlast in male C57BL/6 mouse at 50 mg/kg, sc measured by LC-MS/MS analysis", "assay_type": "ADME, organism-based", "conditions": "in vivo"}, "[6]": {"assay": "Tlast in male C57BL/6 mouse at 50 mg/kg, po measured by LC-MS/MS analysis", "assay_type": "ADME, organism-based", "conditions": "in vivo"}, "[7]": {"assay": "Cmax in male C57BL/6 mouse at 50 mg/kg, sc measured by LC-MS/MS analysis", "assay_type": "ADME, organism-based", "design": "dose 50 mg/kg, route sc", "conditions": "in vivo"}, "[8]": {"assay": "Metabolic stability in mouse liver microsomes preincubated for 5 mins followed by addition of NADPH and assessed as intrinsic clearance by LC-MS/MS analysis", "assay_type": "ADME, Microsome", "conditions": "read-out: CLH"}, "[9]": {"assay": "Metabolic stability in human liver microsomes assessed as intrinsic clearance preincubated for 5 mins followed by addition of NADPH and assessed as intrinsic clearance by LC-MS/MS analysis", "assay_type": "ADME, Microsome", "conditions": "read-out: CLH"}, "[10]": {"assay": "Cmax in male C57BL/6 mouse at 50 mg/kg, po measured by LC-MS/MS analysis", "assay_type": "ADME, organism-based", "design": "dose 50 mg/kg, route po", "conditions": "in vivo"}, "[11]": {"assay": "Stability of compound in simulated gastric fluid incubated for 6 hrs at 1 uM and assessed as compound remaining after 6 hrs by LC-MS/MS analysis", "assay_type": "ADME", "conditions": "read-out: Stability"}, "[12]": {"assay": "Tmax in male C57BL/6 mouse at 50 mg/kg, po measured by LC-MS/MS analysis", "assay_type": "ADME, organism-based", "conditions": "in vivo"}, "[13]": {"assay": "Stability of compound in mouse plasma assessed as half-life incubated for 24 hrs and assessed as half-life at 1 uM by LC-MS/MS analysis", "assay_type": "ADME, cell-free"}, "[14]": {"assay": "Tmax in male C57BL/6 mouse at 50 mg/kg, sc measured by LC-MS/MS analysis", "assay_type": "ADME, organism-based", "conditions": "in vivo"}, "[15]": {"assay": "Stability of compound in fasted state simulated intestinal fluid incubated for 6 hrs and assessed as half-life at 1 uM by LC-MS/MS analysis", "assay_type": "ADME"}, "[16]": {"assay": "Stability of compound in simulated gastric fluid incubated for 6 hrs and assessed as half-life at 1 uM by LC-MS/MS analysis", "assay_type": "ADME"}}}
{"smiles": "CC(C)OC(=O)[C@H](C)NP(=O)(OC[C@H]1O[C@@H](n2ccc(=O)[nH]c2=O)[C@@]2(CCO2)[C@@H]1O)Oc1ccccc1", "note": "(stereo partly specified)", "values": [{"measurement": "EC50", "setting": "Hepatitis C virus", "result": 21.4, "unit": "µM"}, {"measurement": "EC50", "setting": "Chikungunya virus", "result": "> 100", "unit": "µM"}, {"measurement": "EC50", "setting": "dengue virus type 2", "result": "> 50", "unit": "µM"}, {"measurement": "CC50 at 48 h", "setting": "[1]", "result": "> 100", "unit": "µM"}]}
{"smiles": "CC(C)OC(=O)C(C)NP(=O)(OC[C@@]1(N=[N+]=[N-])O[C@@H](n2ccc(=O)[nH]c2=O)[C@@]2(CCS2)[C@@H]1O)Oc1ccccc1", "note": "(single isomer, unassigned)", "values": [{"measurement": "EC50", "setting": "Hepatitis C virus", "result": 2.8, "unit": "µM"}, {"measurement": "EC50", "setting": "Chikungunya virus", "result": "> 100", "unit": "µM"}, {"measurement": "EC50", "setting": "dengue virus type 2", "result": "> 100", "unit": "µM"}, {"measurement": "CC50 at 48 h", "setting": "[1]", "result": "> 100", "unit": "µM"}]}
{"smiles": "CCCCOC(=O)C(C)NP(=O)(OC[C@@]1(F)O[C@@H](n2ccc(=O)[nH]c2=O)[C@@]2(CCS2)[C@@H]1O)Oc1ccccc1", "note": "(single isomer, unassigned)", "values": [{"measurement": "EC50", "setting": "Hepatitis C virus", "result": 1.92, "unit": "µM"}, {"measurement": "EC50", "setting": "Chikungunya virus", "result": 2.87, "unit": "µM"}, {"measurement": "EC50", "setting": "dengue virus type 2", "result": 29, "unit": "µM"}, {"measurement": "EC50", "setting": "Sindbis virus", "result": 4.64, "unit": "µM"}, {"measurement": "CC50 at 48 h", "setting": "[1]", "result": "> 100", "unit": "µM"}]}
{"smiles": "CC(C)OC(=O)[C@H](C)N[P@@](=O)(OC[C@@]1(F)O[C@@H](n2ccc(=O)[nH]c2=O)[C@@]2(CCS2)[C@@H]1O)Oc1ccccc1", "values": [{"measurement": "EC50", "setting": "Hepatitis C virus", "result": 2.2, "unit": "µM"}, {"measurement": "EC50", "setting": "Chikungunya virus", "result": 3.18, "unit": "µM"}, {"measurement": "EC50", "setting": "dengue virus type 2", "result": 29.3, "unit": "µM"}, {"measurement": "EC50", "setting": "Sindbis virus", "result": 5.82, "unit": "µM"}, {"measurement": "CC50 at 48 h", "setting": "[1]", "result": "> 100", "unit": "µM"}]}
{"smiles": "CC(C)OC(=O)[C@H](C)NP(=O)(OC[C@@]1(F)O[C@@H](n2ccc(=O)[nH]c2=O)[C@@]2(CCS2)[C@@H]1O)Oc1ccccc1", "note": "(stereo partly specified)", "values": [{"measurement": "half-life at 1 µM", "setting": "[2]", "result": "> 30", "unit": "h"}, {"measurement": "AUClast", "setting": "[3]", "result": 3050, "unit": "ng·h/g"}, {"measurement": "AUClast", "setting": "[4]", "result": 10000, "unit": "ng·h/g"}, {"measurement": "EC50", "setting": "Hepatitis C virus", "result": 2.58, "unit": "µM"}, {"measurement": "EC50", "setting": "Chikungunya virus", "result": 3.25, "unit": "µM"}, {"measurement": "Tlast", "setting": "[5]", "result": 7, "unit": "h"}, {"measurement": "Tlast", "setting": "[6]", "result": 7, "unit": "h"}, {"measurement": "Cmax", "setting": "[7]", "result": 2060, "unit": "ng/mg"}, {"measurement": "microsomal CLint", "setting": "[8]", "result": "> 347", "unit": "µL/min/mg"}, {"measurement": "microsomal CLint", "setting": "[9]", "result": "> 347", "unit": "µL/min/mg"}, {"measurement": "Cmax", "setting": "[10]", "result": 637, "unit": "ng/mg"}, {"measurement": "remaining at 6 h, 1 µM", "setting": "[11]", "result": 93, "unit": "%"}, {"measurement": "Tmax", "setting": "[12]", "result": 2, "unit": "h"}, {"measurement": "half-life at 1 µM", "setting": "[13]", "result": "< 0.4", "unit": "h"}, {"measurement": "EC50", "setting": "dengue virus type 2", "result": 28.3, "unit": "µM"}, {"measurement": "EC50", "setting": "Sindbis virus", "result": 6.19, "unit": "µM"}, {"measurement": "CC50 at 48 h", "setting": "[1]", "result": "> 100", "unit": "µM"}, {"measurement": "Tmax", "setting": "[14]", "result": 2, "unit": "h"}, {"measurement": "half-life at 1 µM", "setting": "[15]", "result": 0.2, "unit": "h"}, {"measurement": "half-life at 1 µM", "setting": "[16]", "result": "> 6", "unit": "h"}]}
{"smiles": "CC(C)OC(=O)[C@H](C)NP(=O)(OC[C@H]1O[C@@H](n2ccc(=O)[nH]c2=O)[C@@]2(CCS2)[C@@H]1O)Oc1ccccc1", "note": "(stereo partly specified)", "values": [{"measurement": "EC50", "setting": "Hepatitis C virus", "result": 1.17, "unit": "µM"}, {"measurement": "EC50", "setting": "Chikungunya virus", "result": 22.4, "unit": "µM"}, {"measurement": "EC50", "setting": "dengue virus type 2", "result": 26.1, "unit": "µM"}, {"measurement": "CC50 at 48 h", "setting": "[1]", "result": "> 100", "unit": "µM"}]}
{"smiles": "CC(C)OC(=O)[C@H](C)N[P@](=O)(OC[C@@]1(F)O[C@@H](n2ccc(=O)[nH]c2=O)[C@@]2(CCS2)[C@@H]1O)Oc1ccccc1", "values": [{"measurement": "EC50", "setting": "Hepatitis C virus", "result": 2.1, "unit": "µM"}, {"measurement": "EC50", "setting": "Chikungunya virus", "result": 4.6, "unit": "µM"}, {"measurement": "EC50", "setting": "dengue virus type 2", "result": 42, "unit": "µM"}, {"measurement": "EC50", "setting": "Sindbis virus", "result": 5.93, "unit": "µM"}, {"measurement": "CC50 at 48 h", "setting": "[1]", "result": "> 100", "unit": "µM"}]}
{"smiles": "CC(C)OC(=O)[C@H](C)NP(=O)(OC[C@@]1(F)O[C@@H](n2ccc(=O)[nH]c2=O)[C@@]2(CCO2)[C@@H]1O)Oc1ccccc1", "note": "(stereo partly specified)", "values": [{"measurement": "EC50", "setting": "Hepatitis C virus", "result": "> 100", "unit": "µM"}, {"measurement": "EC50", "setting": "Chikungunya virus", "result": "> 100", "unit": "µM"}, {"measurement": "EC50", "setting": "dengue virus type 2", "result": "> 100", "unit": "µM"}, {"measurement": "CC50 at 48 h", "setting": "[1]", "result": "> 100", "unit": "µM"}]}
